Source: patent US9434753B2, “Modified creatine compounds” (Gencia Corporation, priority 2011, dated 2016)
“Also recorded” adds a separate entry of the source. Values belong to the molecule of their own block, whether it stands above or below them.

Experiments:
[1] = test system: recombinant CPK (Native Human Creatine Kinase); assay: Determination of CPK activity (ATP hydrolysis/consumption, luciferase); assay type: biochemical; conditions: 5 mM compound or creatine, 1 mM ATP, CPK 10 units/well, compound 1 compared with equimolar creatine
Protocol: Disclosed herein is an in vitro assay for determining the activity of recombinant CPK on the modified creatine compounds. Recombinant CPK is mixed with ATP and a modified creatine compound of interest. ATP hydrolysis, a measure of the rate of transfer of the gamma phosphate from ATP to the guanidinium groups of the creatine subunit, was measured using luciferase. The rate of ATP hydrolysis/consumption for the modified creatine compound is then compared to the rate of ATP hydrolysis/consumption for creatine. An in vitro assay was performed to determine the activity of recombinant CPK on the modified creatine compounds (CK, Native Human Creatine Kinase from Cell Sciences Catalog No: CSI14786B). Recombinant CPK (10 units/well) is mixed with 1 mM ATP and the compound of example 1 (compound 1) at varying concentrations (5 mM, 2.5 mM, and 1 mM) or creatine (5 mM). ATP hydrolysis; a measure of the rate of transfer of the gamma phosphate from ATP to the guanidinium groups of the creatine subunit was then measured for each sample using luciferase. Luciferase is then added (GLO kit from Promega) according to manufacturer instructions. As ATP is consumed, light is emitted. Every 2 minutes we collected the emitted light in our plate reader in lumens. The data is collected over 30 minutes to generate a slope. The slope is a measure of ATP consumption. […]

Complex I = Complex I (CI) activity microplate assay in treated fibroblasts; assay type: cell-based; conditions: 25 nM, within thirty minutes, compared to 10 μM unmodified creatine
Protocol: Complex I activity was determined using a CI microplate assay (MS 141) from MitoSciences (Eugene, Oreg.) according to the manufacturer's protocol. Fibroblasts were plated in T75 flasks. 24 hours after plating, the cells were treated with various concentrations of compound of example 1 in media for 30 min. The cells were then lysed, and the mitochondria were isolated using reagents provided in the CI assay kit according to the manufacturer's protocol. After determination of the protein concentrations, 20 μg of the purified mitochondria in a total volume of 200 μl was added in quadruplicate to the 96-well microplate and the CI enzyme was immunocaptured within the wells. CI activity was measured colorimetrically with a PHERAstar FS (BMG LABTECH Inc, Cary, N.C., USA) as a change in the absorbance following the oxidation of NADH to NAD+ and the simultaneous reduction of a dye which leads to increased absorbance at 450 nm over time (0-105 min). The average±SD of the quadruplicate values for each time point and treatment group were graphed, and the rate of CI activity was determined by the initial slope (i.e., values in the linear range from 20 to 50 min), expressed as change in optical density per minute.

fibroblasts = assay: Oxygen consumption rate (OCR), XF24 extracellular flux analyzer, fibroblasts; assay type: cell-based; conditions: 5 nM to 500 nM, within thirty minutes of treatment, compared to 10 μM unmodified creatine
Protocol: In this assay, an XF24 extracellular flux analyzer (Seahorse Bioscience, North Billerica, Mass.) was used to measure mitochondrial oxygen consumption in intact cells. The XF24 analyzer creates a transient 7 μl chamber in specialized microplates that allows determination of oxygen and proton concentrations in real time through the measurement of oxygen sensitive dyes by the XF24 instrument. 24 hours prior to OCR measurement, fibroblasts were seeded into 20 wells of the 24 well tissue culture plate while 1 ml of XF Calibrant solution (Seahorse Bioscience, North Billerica, Mass.) was added to each well of a 24 well dual-analyte sensor cartridge (Seahorse Bioscience, North Billerica, Mass.). The sensor cartridge repositioned on the 24 well calibration plate, and the plate was incubated overnight at 37° C. without additional CO2. The day of the experiment, the injection ports on the sensor cartridge were loaded with compound 1 or creatine as indicated at 10× concentrations and placed into the XF24 Flux Analyzer for automated calibration. During the sensor calibration, cells in each of the tissue culture well were rinsed once in 1 mL of unbuffered media. 675 μL of unbuffered media was then added to each well, and the plate was incubated for an hour in the absence of additional CO2. Plates were subsequently placed into the calibrated seahorse XF24 flux analyzer for bioenergetic analysis. […]

[2] = test system: HepG2 human liver carcinoma cells; assay: Oxygen consumption rate (OCR) in HepG2 cells; assay type: cell-based; conditions: control is 100
Protocol: In this assay, an XF24 extracellular flux analyzer (Seahorse Bioscience, North Billerica, Mass.) was used to measure mitochondrial oxygen consumption in intact cells. The XF24 analyzer creates a transient 7 μl chamber in specialized microplates that allows determination of oxygen and proton concentrations in real time through the measurement of oxygen sensitive dyes by the XF24 instrument. 24 hours prior to OCR measurement, fibroblasts were seeded into 20 wells of the 24 well tissue culture plate while 1 ml of XF Calibrant solution (Seahorse Bioscience, North Billerica, Mass.) was added to each well of a 24 well dual-analyte sensor cartridge (Seahorse Bioscience, North Billerica, Mass.). The sensor cartridge repositioned on the 24 well calibration plate, and the plate was incubated overnight at 37° C. without additional CO2.
The day of the experiment, the injection ports on the sensor cartridge were loaded with compound 1 or creatine as indicated at 10× concentrations and placed into the XF24 Flux Analyzer for automated calibration. During the sensor calibration, cells in each of the tissue culture well were rinsed once in 1 mL of unbuffered media. 675 μL of unbuffered media was then added to each well, and the plate was incubated for an hour in the absence of additional CO2. Plates were subsequently placed into the calibrated seahorse XF24 flux analyzer for bioenergetic analysis. An equivalent number of cells per well are plated using a cell counter. Further normalization is achieved by taking baseline measurements of OCR on a well-by-well basis, and the increase observed is a comparison to the same well prior to treatment. Thus each well serves as its own control.
Using the same procedure, the oxygen consumption rate (OCR) for additional compounds were measure in HepG2 human liver carcinoma cells. Compounds were added in concentrations ranging from 0.25 nM to 200 nM.

Compound: CN(CC(=O)NCCC[P+](c1ccccc1)(c1ccccc1)c1ccccc1)C(=N)N [Example 1, N^2-[ammonio(imino)methyl]-N^2-methyl-N-[3-(triphenylphosphonio)propyl]glycinamide bis(trifluoroacetate)]
- rate of ATP hydrolysis/consumption ([1]; bis(trifluoroacetate)): higher rate of ATP hydrolysis/consumption relative to creatine; also recorded: significantly higher rate of ATP hydrolysis/consumption than creatine
- Complex I activity (change in optical density per minute) (Complex I): significant increase in Complex I activity
- oxygen consumption rate (fibroblasts): significant increase in oxygen consumption rate
- OCR ([2]; 10 nM): 124%

Compound: CN(CC(=O)N(C)CCC[P+](c1ccccc1)(c1ccccc1)c1ccccc1)C(=N)N [Example 2, N^2-[ammonio(imino)methyl]-N,N^2-dimethyl-N-[3-(triphenylphosphonio)propyl]glycinamide bis(trifluoroacetate)]
- OCR ([2]; 10 nM): 106%

Compound: CN(CCC(=O)NCCCC[P+](c1ccccc1)(c1ccccc1)c1ccccc1)C(=N)N.O=C(O)C(F)(F)F.O=C([O-])C(F)(F)F [Example 5, N^3-[ammonio(imino)methyl]-N^3-methyl-N-[4-(triphenylphosphonio)butyl]-O-alaninamide bis(trifluoroacetate)]
- OCR ([2]; 10 nM): 117.9%

Compound: CN(CCCC(=O)NCCCC[P+](c1ccccc1)(c1ccccc1)c1ccccc1)C(=N)N.O=C(O)C(F)(F)F.O=C([O-])C(F)(F)F [Example 6, {4-[(4-{[ammonio(imino)methyl](methyl)amino}butanoyl)amino]butyl}(triphenyl)phosphonium bis(trifluoroacetate)]
- OCR ([2]; 0.25 nM): 121%

Compound: CN(CCC(C)(C)C(=O)NCCCC[P+](c1ccccc1)(c1ccccc1)c1ccccc1)C(=N)N.O=C(O)C(F)(F)F.O=C([O-])C(F)(F)F [Example 7, {4-[(4-{[ammonio(imino)methyl](methyl)amino}-2,2-dimethylbutanoyl)amino]butyl}(triphenyl)phosphonium bis(trifluoroacetate)]
- OCR ([2]; 20 nM): 112%

Compound: CN(CC1(C(=O)NCCC[P+](c2ccccc2)(c2ccccc2)c2ccccc2)CC1)C(=N)N.O=C(O)C(F)(F)F.O=C([O-])C(F)(F)F [Example 8, [3-({[1-({[ammonio(imino)methyl](methyl)amino}methyl)cyclopropyl]carbonyl}amino)propyl](triphenyl)phosphonium bis(trifluoroacetate)]
- OCR ([2]; 2.5 nM): 115.7%

Compound: CN(CC1(C(=O)NCCC[P+](c2ccccc2)(c2ccccc2)c2ccccc2)CCOCC1)C(=N)N.O=C(O)C(F)(F)F.O=C([O-])C(F)(F)F [Example 9, [3-({[4-({[ammonio(imino)methyl](methyl)amino}methyl)tetrahydro-2H-pyran-4-yl]carbonyl}amino)propyl](triphenyl)phosphonium bis(trifluoroacetate)]
- OCR ([2]; 2.5 nM): 121.9%

- rate of ATP hydrolysis/consumption [1]: increase in ATP hydrolysis/consumption
Compound: CN(CC(=O)O)C(=N)N [creatine, 2-(carbamimidoyl-methyl-amino) acetic acid]
